Data published in BindingDB's records for doi:10.1016/j.bioorg.2015.09.008 (Gc University, 2015).

Legend:
Alpha-glucosidase MAL12 = Alpha-glucosidase MAL12 (Saccharomyces cerevisiae (strain ATCC 204508 / S288c), UniProt P53341); assay: α-Glucosidase Assay; details: pH 6.8
Method: The α-glucosidase inhibition activity was performed with slight modifications according to method. […] Thecontents were mixed, preincubated for 10 min at 37 °C and preread at 400 nm. The reaction was initiated by the addition of 10 µL of 0.5 mM substrate (p-nitrophenyl glucopyranoside, Sigma Inc.). After 30 min of incubation at 37 °C, absorbance of the yellow color produced due to the formation of p-nitrophenol was measured at 400 nm using Synergy HT (BioTek, USA) 96-well microplate reader. Acarbose was used as positive control.

Acetylcholinesterase = Acetylcholinesterase (Electrophorus electricus, UniProt O42275); assay: AChE and BChE Assay; details: pH 7.7
Method: (§1) The AChE inhibition assay was performed according to the Ellman's method. Total volume of 100 µL reaction mixture contained 60 µL 50 mM Na2HPO4 buffer, pH 7.7. Ten µL test compound (0.5 mM well#1) was added, followed by the addition of10 µL (0.005 unit well#1 AChE, 0.5 unit well#1 BChE, Sigma Inc.) enzyme. […] The reaction was initiated by the addition of 10 µL of 0.5 mM well#1 substrate (acetylthiocholine iodide or butyrylthiocholine chloride, Sigma Inc.), followed bythe addition of 10 µL DTNB from Sigma Inc. (0.5 mM well#1). After 15 min of incubation at 37 °C, absorbance was measured using 96-well plate reader Synergy HT, Biotek, USA. All experiments were carried out with their respective controls in triplicate.

Cholinesterase = Cholinesterase (Homo sapiens, UniProt P06276); assay: AChE and BChE Assay; details: pH 7.7
Sequence of Cholinesterase (P06276 whole entry): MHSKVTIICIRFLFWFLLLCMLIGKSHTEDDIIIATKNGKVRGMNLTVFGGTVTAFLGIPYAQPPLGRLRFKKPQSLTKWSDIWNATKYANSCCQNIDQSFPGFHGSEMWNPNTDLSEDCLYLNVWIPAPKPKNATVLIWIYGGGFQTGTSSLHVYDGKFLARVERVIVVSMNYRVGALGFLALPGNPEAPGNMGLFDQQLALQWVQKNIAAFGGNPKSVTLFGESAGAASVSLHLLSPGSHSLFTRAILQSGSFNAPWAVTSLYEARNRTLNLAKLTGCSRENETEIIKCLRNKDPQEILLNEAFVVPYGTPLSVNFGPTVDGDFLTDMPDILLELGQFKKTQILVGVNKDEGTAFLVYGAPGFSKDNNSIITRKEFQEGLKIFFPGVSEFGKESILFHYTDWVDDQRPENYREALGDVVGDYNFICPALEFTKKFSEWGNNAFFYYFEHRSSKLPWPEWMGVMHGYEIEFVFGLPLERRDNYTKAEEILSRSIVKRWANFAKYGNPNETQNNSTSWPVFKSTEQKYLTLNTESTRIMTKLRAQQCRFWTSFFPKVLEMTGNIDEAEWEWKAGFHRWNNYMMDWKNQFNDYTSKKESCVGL
Method: as §1

Sequence of Alpha-glucosidase MAL12 (P53341 whole entry): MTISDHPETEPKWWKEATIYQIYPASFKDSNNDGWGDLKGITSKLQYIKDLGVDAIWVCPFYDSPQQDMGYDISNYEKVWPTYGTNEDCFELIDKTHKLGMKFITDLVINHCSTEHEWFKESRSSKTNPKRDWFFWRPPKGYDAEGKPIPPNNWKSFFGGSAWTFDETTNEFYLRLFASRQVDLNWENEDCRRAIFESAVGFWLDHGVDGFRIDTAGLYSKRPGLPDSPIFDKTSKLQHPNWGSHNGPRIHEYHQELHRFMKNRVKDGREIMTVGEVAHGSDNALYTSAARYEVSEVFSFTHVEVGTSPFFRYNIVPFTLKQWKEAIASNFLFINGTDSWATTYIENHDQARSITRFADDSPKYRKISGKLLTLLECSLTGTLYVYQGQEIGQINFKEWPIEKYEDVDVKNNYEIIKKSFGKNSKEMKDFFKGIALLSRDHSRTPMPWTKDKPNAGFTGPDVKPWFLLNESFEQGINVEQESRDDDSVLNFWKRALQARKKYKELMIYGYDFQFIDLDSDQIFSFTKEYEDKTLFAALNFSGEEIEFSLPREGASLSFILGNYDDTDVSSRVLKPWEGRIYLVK
Sequence of Acetylcholinesterase (O42275 whole entry): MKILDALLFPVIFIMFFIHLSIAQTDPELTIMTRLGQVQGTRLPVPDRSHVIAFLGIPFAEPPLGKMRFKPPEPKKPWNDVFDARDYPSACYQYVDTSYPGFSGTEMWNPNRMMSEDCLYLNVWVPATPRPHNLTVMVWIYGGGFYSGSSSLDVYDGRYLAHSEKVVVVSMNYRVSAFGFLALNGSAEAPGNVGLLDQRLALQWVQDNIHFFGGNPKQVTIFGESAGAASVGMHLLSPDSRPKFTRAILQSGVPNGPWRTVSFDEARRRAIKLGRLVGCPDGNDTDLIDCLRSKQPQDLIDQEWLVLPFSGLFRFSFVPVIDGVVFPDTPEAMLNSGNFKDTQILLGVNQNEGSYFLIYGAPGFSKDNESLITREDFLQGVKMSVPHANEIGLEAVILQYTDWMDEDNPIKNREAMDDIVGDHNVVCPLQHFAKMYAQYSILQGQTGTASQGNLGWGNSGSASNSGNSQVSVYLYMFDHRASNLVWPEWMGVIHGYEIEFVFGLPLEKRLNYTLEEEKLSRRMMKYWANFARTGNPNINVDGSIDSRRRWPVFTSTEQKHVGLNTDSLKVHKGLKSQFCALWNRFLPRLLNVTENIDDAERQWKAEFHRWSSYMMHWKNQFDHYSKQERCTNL

What does the source list for `O=C(NNS(=O)(=O)c1ccccc1)c1cc(C(=O)NNS(=O)(=O)c2ccccc2)nc(C(=O)NNS(=O)(=O)c2ccccc2)c1` [N',N'',N'''-(pyridine-2,4,6-tricarbonyl)tribenzenesulfonohydrazide (4a)]?
IC50 (Alpha-glucosidase MAL12): 32.2 µM; IC50 (Acetylcholinesterase): 50.2 µM; IC50 (Cholinesterase): 43.8 µM

What does the source list for `CCS(=O)(=O)NNC(=O)c1cc(C(=O)NNS(=O)(=O)CC)nc(C(=O)NNS(=O)(=O)CC)c1` [N',N'',N'''-(pyridine-2,4,6-tricarbonyl)triethanesulfonohydrazide (4h)]?
IC50 (Acetylcholinesterase): 29.1 µM; IC50 (Cholinesterase): 112 µM

Which results are given for `CS(=O)(=O)NNC(=O)c1cc(C(=O)NNS(C)(=O)=O)nc(C(=O)NNS(C)(=O)=O)c1` [N',N'',N'''-(pyridine-2,4,6-tricarbonyl)trimethanesulfonohydrazide (4g)]?
IC50 (Acetylcholinesterase): 10.8 µM; IC50 (Cholinesterase): 44.8 µM

`O=C(NNS(=O)(=O)c1ccc(Br)cc1)c1cc(C(=O)NNS(=O)(=O)c2ccc(Br)cc2)nc(C(=O)NNS(=O)(=O)c2ccc(Br)cc2)c1` [N',N'',N'''-(pyridine-2,4,6-tricarbonyl)tris(4-bromobenzenesulfonohydrazide) (4b)] was tested. Which IC50 (Alpha-glucosidase MAL12) did it give?
The IC50 was 26.8 µM.

For `O=C(NNS(=O)(=O)c1ccc(Cl)cc1)c1cc(C(=O)NNS(=O)(=O)c2ccc(Cl)cc2)nc(C(=O)NNS(=O)(=O)c2ccc(Cl)cc2)c1` [N',N'',N'''-(pyridine-2,4,6-tricarbonyl)tris(4-chlorobenzenesulfonohydrazide (4d)], which IC50 (Alpha-glucosidase MAL12) is on record?
Its IC50 is 28.8 µM.

How did the IC50 (Alpha-glucosidase MAL12) turn out when `O=C(NNS(=O)(=O)c1ccc(F)cc1)c1cc(C(=O)NNS(=O)(=O)c2ccc(F)cc2)nc(C(=O)NNS(=O)(=O)c2ccc(F)cc2)c1` [N',N'',N'''-(pyridine-2,4,6-tricarbonyl)tris(4-fluorobenzenesulfonohydrazide (4c)] was run?
Its IC50 is 25.6 µM.

How did the IC50 (Alpha-glucosidase MAL12) turn out when `Cc1ccc(S(=O)(=O)NNC(=O)c2cc(C(=O)NNS(=O)(=O)c3ccc(C)cc3)nc(C(=O)NNS(=O)(=O)c3ccc(C)cc3)c2)cc1` [N',N'',N'''-(pyridine-2,4,6-tricarbonyl)tris(4-methylbenzenesulfonohydrazide) (4e)] was run?
Its IC50 is 125 µM.
